In US20070098801A1, “Particles shaped as platelets” (JANSSEN PHARMACEUTICA N.V., priority 2003, published 2007):

Assay: Modulated differential scanning calorimetry (glass transition in the reversing signal)
Assay type: physicochemical
Procedure: Modulated Differential scanning calorimetry (MDSC) was performed to evaluate the thermal characteristics before and after melt extrusion with injection of pressurized carbon dioxide. […] A glass transition is observed as an inflection in the DSC profile when heat flow is plotted against temperature. Often, the glass transition is accompanied with an enthalpy relaxation, which is seen as an endothermic signal superimposed on the glass transition. Furthermore, these polymers can be hydrophilic and thus they may have adsorbed a significant amount of water. Evaporation of water is also an endothermic process. These signals make interpretation of the glass transition difficult. Therefore, MDSC was used so that the different thermal events could be elucidated with regard to the reversible and non-reversible transitions. […]
The measurements were performed using a TA Instruments modulated DSC Q1000 differential scanning calorimeter and thermal analysis controller (TA Instruments, New Castle, Del., USA). […] The samples were analysed in standard (open) aluminum as well as in hermetically sealed TA Instruments pans. […] The glass transition was measured at the inflection point as half the height of the shift in the heat flow signal (Tg 1/2 cp). […]
The samples measured in open pans as well as in hermetically sealed pans were analysed at least in duplicate.

- Melting enthalpy ΔH of pure itraconazole: 85 J/g
Compound: CCC(C)n1ncn(-c2ccc(N3CCN(c4ccc(OCC5COC(Cn6cncn6)(c6ccc(Cl)cc6Cl)O5)cc4)CC3)cc2)c1=O (stereo not shown) [itraconazole]
